Assay results from the NIST ThermoML archive (doi:10.1007/s10765-009-0579-1).

Assay: xn = mol fraction of the nth substance listed
Details: Gas; for viscosity: Oscillating disk viscometry; for mass density: Pycnometric method

CC(F)(F)Cl [1-chloro-1,1-difluoroethane] + FC(F)Cl
Details	mass density [kg/m3]	viscosity [mPa·s]
373.15 K, 2604 kPa, x2 = 0.7502	99.88	0.01618
373.15 K, 2789 kPa, x2 = 0.7502	110.3	0.01638
373.15 K, 2988 kPa, x2 = 0.7502	121.8	0.01665
398.15 K, 100.6 kPa, x2 = 0.7502	2.753	0.01605
398.15 K, 101.6 kPa, x2 = 0.2615	2.997	0.01472
398.15 K, 101.8 kPa, x2 = 0.5169	2.886	0.01547
398.15 K, 102 kPa, x2 = 0.2615	3.006	0.0147
398.15 K, 278.9 kPa, x2 = 0.2615	8.354	0.01475
398.15 K, 345.7 kPa, x2 = 0.5169	9.975	0.01548
398.15 K, 404.8 kPa, x2 = 0.7502	11.29	0.01605
398.15 K, 468 kPa, x2 = 0.2615	14.28	0.01477
398.15 K, 591.5 kPa, x2 = 0.5169	17.39	0.01553
398.15 K, 654.1 kPa, x2 = 0.2615	20.27	0.01482
398.15 K, 779.9 kPa, x2 = 0.7502	22.29	0.01612
398.15 K, 834.7 kPa, x2 = 0.5169	25.01	0.01557
398.15 K, 908.9 kPa, x2 = 0.2615	28.88	0.01485
398.15 K, 1036 kPa, x2 = 0.7502	30.15	0.01619
398.15 K, 1081 kPa, x2 = 0.5169	33.05	0.01562
398.15 K, 1153 kPa, x2 = 0.2615	37.53	0.01493
398.15 K, 1326 kPa, x2 = 0.5169	41.4	0.01572
398.15 K, 1374 kPa, x2 = 0.7502	40.98	0.01628
398.15 K, 1397 kPa, x2 = 0.2615	46.73	0.01504
398.15 K, 1569 kPa, x2 = 0.5169	50.2	0.01584
398.15 K, 1608 kPa, x2 = 0.2615	55.16	0.0151
398.15 K, 1667 kPa, x2 = 0.7502	50.88	0.01642
398.15 K, 1821 kPa, x2 = 0.2615	63.97	0.01525
398.15 K, 1824 kPa, x2 = 0.5169	59.84	0.01596
398.15 K, 2016 kPa, x2 = 0.7502	63.22	0.01657
398.15 K, 2031 kPa, x2 = 0.2615	73.54	0.01542
398.15 K, 2121 kPa, x2 = 0.5169	71.87	0.01616
398.15 K, 2251 kPa, x2 = 0.2615	84.17	0.0156
398.15 K, 2376 kPa, x2 = 0.5169	82.87	0.01632
398.15 K, 2376 kPa, x2 = 0.7502	77.16	0.01679
398.15 K, 2442 kPa, x2 = 0.2615	94.09	0.01576
398.15 K, 2634 kPa, x2 = 0.5169	94.96	0.01655
398.15 K, 2637 kPa, x2 = 0.2615	105.1	0.01598
398.15 K, 2813 kPa, x2 = 0.7502	95.48	0.01711
398.15 K, 2835 kPa, x2 = 0.2615	117.2	0.01629
398.15 K, 2884 kPa, x2 = 0.5169	107.4	0.0168
398.15 K, 3101 kPa, x2 = 0.2615	136	0.01673
398.15 K, 3115 kPa, x2 = 0.7502	109.3	0.01741
398.15 K, 3195 kPa, x2 = 0.5169	124.9	0.01716
398.15 K, 3322 kPa, x2 = 0.2615	154.3	0.01724
398.15 K, 3403 kPa, x2 = 0.7502	128.5	0.01784
398.15 K, 3432 kPa, x2 = 0.5169	139.6	0.01752
398.15 K, 3481 kPa, x2 = 0.2615	170.2	0.01773
398.15 K, 3698 kPa, x2 = 0.2615	196.3	0.01858
398.15 K, 3714 kPa, x2 = 0.5169	159.3	0.01808
398.15 K, 3825 kPa, x2 = 0.7502	146.7	0.01827
398.15 K, 3854 kPa, x2 = 0.2615	222.4	0.01953
398.15 K, 3961 kPa, x2 = 0.5169	179.5	0.01865
398.15 K, 3998 kPa, x2 = 0.2615	261.2	0.02101
398.15 K, 4086 kPa, x2 = 0.7502	162.7	0.01865
398.15 K, 4222 kPa, x2 = 0.5169	204.9	0.01952
398.15 K, 4343 kPa, x2 = 0.7502	180.2	0.01918
398.15 K, 4446 kPa, x2 = 0.5169	231.6	0.02048
398.15 K, 4642 kPa, x2 = 0.7502	203.6	0.01991
398.15 K, 4840 kPa, x2 = 0.7502	218.9	0.0205
423.15 K, 101.1 kPa, x2 = 0.7502	2.597	0.01682
